Assay results published in paper PMC4096861 (Clinical lymphoma, myeloma & leukemia, 2013).
Like-named read-outs stand apart in the source and are kept apart here.

Legend:
Fit3 = settings: @ 15 nM; cited from earlier work
bone marrow blasts = assay: Phase 1: efficacy; type: in vivo, human
[1] = Phase 1: plasma pharmacokinetics, Cycle 1; type: in vivo, human; settings: for clearance / Tmax / AUC(0-inf) / Cmax: human
[2] = type: in vivo, human
Aurora B = settings: @ 3 nM; cited from earlier work
c-kit = settings: @ 250 nM; cited from earlier work
Src = settings: read-out: IC50 Src; cited from earlier work
Lck = settings: read-out: IC50 Lck; cited from earlier work
[3] = test system: aurora kinase B substrate pHH3; assay: Western blot of PBMCs from patient blood; type: in vivo, human
Aurora A = settings: @ 3 nM; cited from earlier work
RSK-1 = settings: read-out: IC50 RSK-1; cited from earlier work
AML = settings: eight of 32 adult AML patients; cited from earlier work
[4] = plasma, intravenous, 144 mg/m^2
[5] = plasma, intravenous, 160 mg/m^2
[6] = plasma, intravenous, 200 mg/m^2
[7] = plasma, intravenous, 216 mg/m^2

For `O=C(Nc1c[nH]nc1-c1nc2ccc(CN3CCOCC3)cc2[nH]1)NC1CC1` [AT9283], which “inhibition of Fit3” value (Fit3) is on record?
The value was 57% @ 15 nM.

And the “reduction in bone marrow blasts” value (bone marrow blasts; Patient B, MTD 108 mg/m^2/day over 72h, 2 cycles, 62% at baseline v 32% at follow-up)?
Its value is 48%.

What about the “objective remission (complete and partial)” value (bone marrow blasts; all patients) of the same compound?
Its value is “no objective or partial remissions were observed”.

And the “reduction in bone marrow blasts” value (bone marrow blasts; approximately one-third of patients with relapsed/refractory AML)?
Its value is no less than 38%.

And the “benefit in accelerated phase CML” value (bone marrow blasts; both patients with accelerated phase CML, cytogenetic response in 1)?
Its value is “evidence of benefit”.

And the “benefit in myeloproliferative disease” value (bone marrow blasts; patients with myeloproliferative disease)?
Its value is “no sustained evidence of treatment benefit”.

What about the “dose proportionality of exposure” value ([1]; Cmax and AUC0-inf) of the same compound?
Its value is “generally proportional to dose”.

What about the clearance ([1]; in vivo) of the same compound?
The clearance was 5.36 mL/min/kg.

And the Tmax ([1]; in vivo, Tmax)?
Its Tmax is 53.8 h.

What about the Tmax ([1]; in vivo, Tmax of mean maximum plasma concentrations) of the same compound?
The Tmax was 41 to 62 h.

What about the AUC(0-inf) ([1]; plasma, intravenous, 9 mg/m^2) of the same compound?
The AUC(0-inf) was 465 ng·h/mL.

And the Cmax ([1]; plasma, intravenous, 9 mg/m^2)?
Its Cmax is 7.35 ng/mL.

What about the clearance ([1]; plasma, intravenous, 9 mg/m^2) of the same compound?
Its clearance is 9.52 mL/min/kg.

What about the Tmax ([1]; plasma, intravenous, 9 mg/m^2, Tmax, Cycle 1 mean plasma, 9 mg/m^2, 72 hr infusion (n=3)) of the same compound?
The Tmax was 47.2 h.

And the AUC(0-inf) ([1]; plasma, intravenous, 18 mg/m^2)?
The AUC(0-inf) was 1070 ng·h/mL.

And the Cmax ([1]; plasma, intravenous, 18 mg/m^2)?
The Cmax was 18.1 ng/mL.

And the clearance ([1]; plasma, intravenous, 18 mg/m^2)?
Its clearance is 7.17 mL/min/kg.

What about the Tmax ([1]; plasma, intravenous, 18 mg/m^2, Tmax, Cycle 1 mean plasma, 18 mg/m^2, 72 hr infusion (n=3)) of the same compound?
Its Tmax is 62 h.

And the AUC(0-inf) ([1]; plasma, intravenous, 36 mg/m^2)?
Its AUC(0-inf) is 2860 ng·h/mL.

And the Cmax ([1]; plasma, intravenous, 36 mg/m^2)?
Its Cmax is 41.1 ng/mL.

And the clearance ([1]; plasma, intravenous, 36 mg/m^2)?
The clearance was 6.03 mL/min/kg.

What about the Tmax ([1]; plasma, intravenous, 36 mg/m^2, Tmax, Cycle 1 mean plasma, 36 mg/m^2, 72 hr infusion (n=7)) of the same compound?
Its Tmax is 53.2 h.

What about the AUC(0-inf) ([1]; plasma, intravenous, 72 mg/m^2) of the same compound?
The AUC(0-inf) was 16300 ng·h/mL.

And the Cmax ([1]; plasma, intravenous, 72 mg/m^2)?
The Cmax was 131 ng/mL.

And the clearance ([1]; plasma, intravenous, 72 mg/m^2)?
Its clearance is 1.84 mL/min/kg.

What about the Tmax ([1]; plasma, intravenous, 72 mg/m^2, Tmax, Cycle 1 mean plasma, 72 mg/m^2, 72 hr infusion (n=3)) of the same compound?
Its Tmax is 46.7 h.

What about the AUC(0-inf) [1, 4] of the same compound?
Its AUC(0-inf) is 14300 ng·h/mL.

And the Cmax [1, 4]?
The Cmax was 229 ng/mL.

What about the clearance [1, 4] of the same compound?
The clearance was 4.27 mL/min/kg.

What about the Tmax ([1]; plasma, intravenous, 144 mg/m^2, Tmax, Cycle 1 mean plasma, 144 mg/m^2, 72 hr infusion (n=4)) of the same compound?
The Tmax was 54.7 h.

What about the AUC(0-inf) [1, 5] of the same compound?
Its AUC(0-inf) is 13700 ng·h/mL.

And the Cmax [1, 5]?
The Cmax was 164 ng/mL.

What about the clearance [1, 5] of the same compound?
Its clearance is 5.61 mL/min/kg.

What about the Tmax ([1]; plasma, intravenous, 160 mg/m^2, Tmax, Cycle 1 mean plasma, 160 mg/m^2, 96 hr infusion (n=12)) of the same compound?
Its Tmax is 59.3 h.

What about the AUC(0-inf) [1, 6] of the same compound?
The AUC(0-inf) was 19100 ng·h/mL.

What about the Cmax [1, 6] of the same compound?
Its Cmax is 184 ng/mL.

What about the clearance [1, 6] of the same compound?
Its clearance is 4.58 mL/min/kg.

What about the Tmax ([1]; plasma, intravenous, 200 mg/m^2, Tmax, Cycle 1 mean plasma, 200 mg/m^2, 120 hr infusion (n=4)) of the same compound?
The Tmax was 69 h.

And the AUC(0-inf) [1, 7]?
The AUC(0-inf) was 13000 ng·h/mL.

What about the Cmax [1, 7] of the same compound?
Its Cmax is 228 ng/mL.

What about the clearance [1, 7] of the same compound?
Its clearance is 7.13 mL/min/kg.

What about the Tmax ([1]; plasma, intravenous, 216 mg/m^2, Tmax, Cycle 1 mean plasma, 216 mg/m^2, 72 hr infusion (n=3)) of the same compound?
The Tmax was 41.3 h.

What about the Cmax ([1]; plasma, intravenous, 486 mg/m^2) of the same compound?
The Cmax was 1280 ng/mL.

And the Tmax ([1]; plasma, intravenous, 486 mg/m^2, Tmax, Cycle 1 mean plasma, 486 mg/m^2, 72 hr infusion (n=3))?
The Tmax was 51 h.

What about the deaths ([2]; 13 deaths of 48 patients) of the same compound?
The deaths was 27%.

What about the MTD ([2]; 72-hour continuous infusion every 21 days) of the same compound?
The MTD was 324 mg/m^2/72h.

And the MTD ([2]; 72-hour infusion)?
The MTD was 108 mg/m^2/day.

What about the “AE incidence overall: constipation” value ([2]; human, in vivo) of the same compound?
Its value is 21%.

What about the “AE incidence overall: diarrhea” value ([2]; human, in vivo) of the same compound?
Its value is 29%.

What about the “AE incidence overall: epistaxis” value ([2]; human, in vivo) of the same compound?
Its value is 17%.

And the “AE incidence overall: fatigue” value ([2]; human, in vivo)?
The value was 27%.

And the “AE incidence overall: febrile neutropenia” value ([2]; human, in vivo)?
Its value is 25%.

And the “AE incidence overall: gastrointestinal disorders” value ([2]; human, in vivo)?
The value was 75%.

What about the “AE incidence overall: headache” value ([2]; human, in vivo) of the same compound?
The value was 21%.

And the “AE incidence overall: nausea” value ([2]; human, in vivo)?
The value was 29%.

What about the “AE incidence overall: peripheral edema” value ([2]; human, in vivo) of the same compound?
Its value is 25%.

And the “AE incidence overall: pneumonia” value ([2]; human, in vivo)?
Its value is 29%.

What about the “AT9283-related AE incidence: alopecia” value ([2]; human, in vivo) of the same compound?
The value was 8%.

And the “AT9283-related AE incidence: nausea” value ([2]; human, in vivo)?
The value was 15%.

And the “AT9283-related AE incidence: stomatitis” value ([2]; human, in vivo)?
The value was 13%.

What about the “incidence of cardiac tachyarrythmias” value ([2]; human, in vivo) of the same compound?
The value was 15%.

What about the “patients withdrawn after treatment due to AEs” value ([2]; human, in vivo) of the same compound?
Its value is 15%.

And the “incidence of AEs (highest)” value ([2]; human, in vivo, 72 h)?
Its value is 100%.

What about the “incidence of AEs (lowest)” value ([2]; human, in vivo, 72 h) of the same compound?
The value was 29%.

And the DLTs ([2]; in vivo)?
Its DLTs is “myocardial infarction, hypertension, cardiomyopathy, tumor lysis syndrome, pneumonia, and multiorgan failure”.

What about the “left ventricular ejection fraction (LVEF) after severe drop” value ([2]; in vivo) of the same compound?
Its value is 20–25%.

What about the tolerability of regimen ([2]; in vivo) of the same compound?
The tolerability of regimen was “unacceptably toxic”.

And the “inhibition of Aurora B” value (Aurora B)?
Its value is 58% @ 3 nM.

What about the inhibition of c-kit (c-kit) of the same compound?
Its inhibition of c-kit is 46% @ 250 nM.

And the IC50 (Src)?
Its IC50 is 97 nM.

And the IC50 (Lck)?
The IC50 was 63 nM.

What about the “pHH3 phosphorylation in PBMCs” value ([3]; 3 mg/m^2/day (9 mg/m^2/72h), two of three patients) of the same compound?
Its value is “inhibition of pHH3 phosphorylation was observed”.

And the “phosphorylation of aurora kinase B substrate pHH3 in PBMCs” value ([3]; MTD 108 mg/m^2/day (324 mg/m^2/72h), two of three patients)?
The value was “rapid inhibition of phosphorylation”.

What about the “inhibition of Aurora A” value (Aurora A) of the same compound?
The value was 52% @ 3 nM.

For `CCN(CCCOc1ccc2c(Nc3cc(CC(=O)Nc4cccc(F)c4)n[nH]3)ncnc2c1)CCOP(=O)(O)O` [AZD1152], which “haematologic response according to IWG AML criteria” value (AML) is on record?
Its value is 25%.
